Data from ChEMBL document CHEMBL1201862, “PubChem BioAssay data set” (2004).
Calls of active or inactive are those of the source.

How the values were obtained:
[1] = HEK293T cytotoxicity, dose response, cytotoxicity control for miR-122 modulator project, cell-based, inhibitor set, cherry-pick, set 2 (AID 720697); type: functional
[2] = HEK293T cytotoxicity, dose response, cytotoxicity control for miR-122 modulator project, cell-based, activator set, cherry-pick (AID 720690); type: functional;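 also: HEK293T human cells scored for general mammalian cytotoxicity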
[3] = miR-122 activators in hepatoma reporter cells, dose response, cell-based, Huh7 psiCHECK-miR122, Renilla luciferase, cherry-picked (AID 651956); type: functional;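 also: huh7 hepatoma cells stably carrying a psiCHECK-2 miR-122 sensor plasmid; renilla luciferase signal reporting endogenous miR-122 activity after 48 h compound exposure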
[4] = ARNT/TACC3 interaction disruptors, potency, confirmation, biochemical, AlphaScreen, cherry-picked samples (AID 651703); type: functional, Homo sapiens;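 also: His-tagged ARNT PAS-B domain paired with GST-TACC3 E629A dimer coactivator fragment; potency of inhibitors that break up the complex and lower AlphaScreen signal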
[5] = target: T1, Caspase-6 (Homo sapiens, UniProt P55212); assay: human caspase-6 inhibitors, dose response, biochemical, VEID-R110 fluorescence, cherry-pick (AID 720632)
T1 sequence (P55212 whole entry): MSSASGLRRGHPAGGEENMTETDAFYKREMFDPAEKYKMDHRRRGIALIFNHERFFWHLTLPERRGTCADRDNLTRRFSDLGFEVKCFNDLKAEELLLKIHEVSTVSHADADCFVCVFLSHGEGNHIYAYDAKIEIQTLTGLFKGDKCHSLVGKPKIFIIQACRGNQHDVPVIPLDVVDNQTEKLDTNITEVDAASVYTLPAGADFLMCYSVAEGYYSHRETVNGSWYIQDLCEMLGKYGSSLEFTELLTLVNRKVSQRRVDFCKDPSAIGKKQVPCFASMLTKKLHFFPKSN

[6] = target: T2, Interleukin-8 (Homo sapiens, UniProt P10145); assay: Dose Response confirmation of uHTS small molecule hits for cystic fibrosis induced NFkb Inhibitors in a PAF-induced IL8 counterscreen.; type: functional; details: read-out: IC50_Mean
T2 sequence (P10145 whole entry): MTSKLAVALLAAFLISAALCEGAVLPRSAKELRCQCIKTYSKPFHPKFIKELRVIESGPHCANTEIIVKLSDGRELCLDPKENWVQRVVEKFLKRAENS

[7] = target: T3, Small ubiquitin-related modifier 1 (Homo sapiens, UniProt P63165); assay: inhibitors of SUMO1 peptide binding, dose response, biochemical, fluorescence polarization, uHTS hits (AID 624382); type: functional; details: read-out: IC50_Mean
T3 sequence (P63165 whole entry): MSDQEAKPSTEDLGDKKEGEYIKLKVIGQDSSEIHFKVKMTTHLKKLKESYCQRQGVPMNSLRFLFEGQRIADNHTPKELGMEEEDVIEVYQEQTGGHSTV

[8] = target: 26S proteasome non-ATPase regulatory subunit 14 (Homo sapiens, UniProt O00487); assay: inhibition of proteasome subunit RPN11 – biochemical, fluorescence polarization, uHTS hits, confirmation (AID 602368); type: functional
26S proteasome non-ATPase regulatory subunit 14, sequence (O00487 whole entry): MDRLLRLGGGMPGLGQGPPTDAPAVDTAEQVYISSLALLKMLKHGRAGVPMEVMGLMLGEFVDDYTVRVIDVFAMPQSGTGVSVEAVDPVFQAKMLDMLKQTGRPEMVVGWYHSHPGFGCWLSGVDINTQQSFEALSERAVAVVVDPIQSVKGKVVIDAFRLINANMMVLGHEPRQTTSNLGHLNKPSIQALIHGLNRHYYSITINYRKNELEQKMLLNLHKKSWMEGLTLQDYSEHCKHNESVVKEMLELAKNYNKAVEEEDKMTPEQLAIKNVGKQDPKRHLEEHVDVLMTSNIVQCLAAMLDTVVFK

[9] = target: Prothrombin (Bos taurus, UniProt P00735); assay: thrombin inhibition, dose response, biochemical, fluorescence polarization, uHTS hits (AID 602369); type: functional
[10] = target: T4, Tyrosine-protein phosphatase non-receptor type 22 (Homo sapiens, UniProt Q9Y2R2); assay: LYP phosphatase inhibition for selectivity, dose response, selectivity assay for LMPTP inhibitor project, biochemical, fluorescence, LYP catalytic domain (AID 652006); type: functional; details: read-out: IC50_Mean
T4 sequence (Q9Y2R2 whole entry): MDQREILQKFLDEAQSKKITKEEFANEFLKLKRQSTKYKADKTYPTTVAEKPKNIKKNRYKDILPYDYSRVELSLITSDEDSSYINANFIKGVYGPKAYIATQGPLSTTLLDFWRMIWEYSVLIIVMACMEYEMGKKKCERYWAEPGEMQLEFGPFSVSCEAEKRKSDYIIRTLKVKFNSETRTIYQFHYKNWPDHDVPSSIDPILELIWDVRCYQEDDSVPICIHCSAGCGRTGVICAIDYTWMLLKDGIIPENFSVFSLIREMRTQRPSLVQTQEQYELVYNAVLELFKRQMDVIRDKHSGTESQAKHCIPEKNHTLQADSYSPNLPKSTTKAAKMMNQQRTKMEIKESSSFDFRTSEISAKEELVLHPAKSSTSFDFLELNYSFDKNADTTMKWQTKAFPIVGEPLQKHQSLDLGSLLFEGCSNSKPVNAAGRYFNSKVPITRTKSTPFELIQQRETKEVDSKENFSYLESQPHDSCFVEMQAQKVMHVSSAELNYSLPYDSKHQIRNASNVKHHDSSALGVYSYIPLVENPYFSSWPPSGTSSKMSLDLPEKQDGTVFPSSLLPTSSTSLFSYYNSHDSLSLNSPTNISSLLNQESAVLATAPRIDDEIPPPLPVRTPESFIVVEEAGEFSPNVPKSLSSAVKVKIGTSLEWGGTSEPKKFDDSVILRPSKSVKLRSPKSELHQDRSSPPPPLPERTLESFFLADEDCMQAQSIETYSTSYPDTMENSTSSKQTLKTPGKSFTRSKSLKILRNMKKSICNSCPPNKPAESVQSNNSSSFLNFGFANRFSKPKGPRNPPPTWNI

[11] = target: T5, Low molecular weight phosphotyrosine protein phosphatase (Homo sapiens, UniProt P24666); type: functional; details: read-out: IC50_Mean
T5 sequence (P24666 whole entry): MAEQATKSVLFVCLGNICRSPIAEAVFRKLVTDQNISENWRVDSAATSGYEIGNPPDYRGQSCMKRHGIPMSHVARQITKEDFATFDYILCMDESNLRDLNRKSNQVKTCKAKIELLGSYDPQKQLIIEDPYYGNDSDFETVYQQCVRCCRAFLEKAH

[12] = target: T3, Small ubiquitin-related modifier 1; assay: inhibitors of SUMO1 partner interactions, dose response, biochemical, FRET (AID 624383); type: functional; details: read-out: IC50_Mean
[13] = target: T5, Low molecular weight phosphotyrosine protein phosphatase; type: functional; details: read-out: IC50_Mean; remark: listed apart in the source
[14] = target: 72 kDa type IV collagenase (Homo sapiens, UniProt P08253); assay: Dose Response validation of uHTS RPN11 inhibitor hits using a MMP-2 Fluorescence assay.; type: functional
72 kDa type IV collagenase, sequence (P08253 whole entry): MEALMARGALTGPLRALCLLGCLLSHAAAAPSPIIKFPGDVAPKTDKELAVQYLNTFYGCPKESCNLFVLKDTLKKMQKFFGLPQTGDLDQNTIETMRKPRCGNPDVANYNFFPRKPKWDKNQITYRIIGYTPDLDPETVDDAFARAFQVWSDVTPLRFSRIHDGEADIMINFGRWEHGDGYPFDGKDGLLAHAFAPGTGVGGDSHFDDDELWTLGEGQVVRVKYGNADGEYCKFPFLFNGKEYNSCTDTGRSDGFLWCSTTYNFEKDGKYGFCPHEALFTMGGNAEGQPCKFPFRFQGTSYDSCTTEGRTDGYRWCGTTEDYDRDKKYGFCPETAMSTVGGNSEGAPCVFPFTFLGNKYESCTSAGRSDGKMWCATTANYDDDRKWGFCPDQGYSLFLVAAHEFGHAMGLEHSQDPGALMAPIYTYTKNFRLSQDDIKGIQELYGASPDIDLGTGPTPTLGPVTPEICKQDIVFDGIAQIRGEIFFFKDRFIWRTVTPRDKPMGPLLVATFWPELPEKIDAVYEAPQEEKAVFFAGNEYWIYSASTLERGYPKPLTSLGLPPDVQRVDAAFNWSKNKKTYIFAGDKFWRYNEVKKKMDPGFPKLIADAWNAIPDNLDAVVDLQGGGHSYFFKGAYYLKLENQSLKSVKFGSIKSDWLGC

[15] = target: ADP-ribosylation factor GTPase-activating protein 1 (Rattus norvegicus, UniProt Q62848); assay: Fluorescence polarization-based biochemical high throughput dose response screening assay to identify inhibitors of ADP-ribosylation factor GTPase activating protein 1 (ARFGAP1).; type: functional
ADP-ribosylation factor GTPase-activating protein 1, sequence (Q62848 whole entry): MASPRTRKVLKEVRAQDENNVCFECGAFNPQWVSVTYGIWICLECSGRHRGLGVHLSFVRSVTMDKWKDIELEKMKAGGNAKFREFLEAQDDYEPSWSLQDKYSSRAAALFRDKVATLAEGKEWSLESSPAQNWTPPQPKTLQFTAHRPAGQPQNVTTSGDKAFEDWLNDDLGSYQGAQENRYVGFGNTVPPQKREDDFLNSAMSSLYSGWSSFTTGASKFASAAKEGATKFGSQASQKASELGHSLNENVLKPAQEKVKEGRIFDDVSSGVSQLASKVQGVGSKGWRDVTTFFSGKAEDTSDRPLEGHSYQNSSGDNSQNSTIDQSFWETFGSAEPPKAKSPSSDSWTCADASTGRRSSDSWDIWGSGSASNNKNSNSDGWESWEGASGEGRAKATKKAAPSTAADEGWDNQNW

[16] = inhibitors of intracellular T. cruzi replication, confirmation, NIH3T3 host cells, beta-gal luminescence (AID 2044); type: functional, cell-based;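 also: intracellular parasites grown in NIH/3T3 mouse fibroblasts as host cells; luminescent beta-galactosidase reporter signal from transgenic T. cruzi replicating inside host cells; inhibitors lower the luminescence signal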
[17] = cytotoxicity toward NIH3T3 fibroblasts, dose response, counter-screen, cell-based, ATP luminescence, mouse fibroblasts (AID 2010); type: functional;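 also: cells exposed to compound for about 90 hours before reading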

In the case of NC(Cc1ccc(C(F)(F)F)cc1)c1csc(Nc2nncc3ccccc23)n1 (configuration not stated), the AC50 [1] is reported as 2.52 µM (active), the AC50 [2] is reported as 8.02 µM (active) and the AC50 [3] is reported as 19.4 µM (active).

With CC1CCN(C(=O)COC(=O)c2ccc([N+](=O)[O-])o2)CC1 the AC50 [4] was 122 µM (active) and the AC50 [5] was 18.3 µM (active).

In the case of COc1cncc(-c2cnc3sc(NCCc4ccccn4)nn23)c1, the IC50 [6] is reported as 9.33 µM (active).

For C/C(=N\NC(=O)c1ccc(OC2OCCOC2Oc2ccc(C(=O)N/N=C(\C)c3ccncc3)cc2)cc1)c1ccncc1 (configuration not stated), the IC50 [7] was > 66.6 µM (inactive), the IC50 [8] was 9.62 µM (active) and the IC50 [9] was 41 µM (active). The IC50 [10] was 13.6 µM (active), the IC50 [11] was 13.2 µM (active) and the IC50 [12] was 8.52 µM (active). The IC50 [13] was > 80 µM (inactive) and the IC50 [14] was > 100 µM (inactive).

For N#CCCn1cc(/C=N/NC(N)=S)c(-c2ccc(-c3ccccc3)cc2)n1, the IC50 [15] was 128 µM (inactive), the EC50 [16] was 0.924 µM (active) and the EC50 [17] was 9.69 µM (active).
